According to patent US20070212360A1, “Modulation of mitochondrial oxygen consumption for therapeutic purposes” (priority 2006, published 2007):

Legend:
[1] = system: primary human or immortalized mouse fibroblasts; test: Oxygen consumption of fibroblast suspensions (Clark electrode); format: cell-based
Method: FIG. 1. Hypoxia inhibits mitochondrial oxygen consumption. A: Oxygen concentration curves generated using a Clark electrode for fibroblast suspensions from cultures exposed to normoxia or hypoxia for 24 h. Arrows indicate addition of the mitochondrial uncoupler CCCP and cytochrome poison cyanide. The slope of the curve is a measure of the rate of oxygen consumption. B: Average oxygen consumption rates in normal human fibroblasts and immortalized murine fibroblasts cultured in normoxia or 0.5% O2 for 24 h. C: Fraction of total oxygen consumption due to mitochondrial versus non-mitochondrial consumption in wild-type murine fibroblasts. Mitochondrial consumption was determined using 1 ug/ml of the cell permeable complex 3 inhibitor Antimycin A. D: Change in oxygen consumption in RKO cells after exposure to the indicated time in 0.5% O2, and time to recovery in normoxia following 24 h hypoxia. For all graphs, the error bars represent the standard error of the mean.
Oxygen consumption measurements. […] Oxygen consumption was measured in a 0.5 ml volume using an Oxytherm electrode unit (Hansatech, Norfolk, UK). […]
HIF-1 downregulates mitochondrial oxygen consumption. Having identified several putative HIF-1 responsive gene products that had the potential to regulate mitochondrial function, we then directly measured mitochondrial oxygen consumption in cells exposed to long term hypoxia. […]

HIFwt and HIFko MEFs = test: Tirapazamine toxicity by colony formation (clonogenic viability); format: cell-based, mouse
Method: FIG. 6. HIF dependent decrease in oxygen consumption raises intracellular oxygen concentration, protects when oxygen is limiting, and decreases sensitivity to tirapazamine in vitro. A: Pimonidazole was used to determine the intracellular oxygen concentration of cells in culture. HIFwt and HIFko MEFs were grown at high density and exposed to 2% O2 or anoxia for 24 h in glass dishes. For the last 4 hours of treatment, cells were exposed to 60 μg/ml pimonidazole. Pimonidazole binding was quantitated by flow cytometry after binding of an FITC conjugated anti-pimo mAb. Results are representative of two independent experiments. B: HIF1α reduces oxygen consumption and protects cells when total oxygen is limited. HIFwt and HIFko cells were plated at high density and sealed in aluminum jigs at <0.02% oxygen. At the indicated times, cells were harvested and dead cells were quantitated by trypan blue exclusion. […] C. PDK1 is responsible for HIF-1's adaptive response when oxygen is limiting. A similar jig experiment was performed to measure survival in the parental RKO, the RKO ShRNAHIF1α and the RKOShPDK1 cells. Cell death by trypan blue uptake was measured 48 h after the jigs were sealed. D: HIF status alters sensitivity to TPZ in vitro. HIFwt and HIFko MEFs were grown at high density in glass dishes and exposed to 21%, 2%, and <0.01% O2 conditions for 18 hours in the presence of varying concentrations of Tirapazamine. After exposure, cells were harvested, and replated under normoxia to determine clonogenic viability. Survival is calculated relative to the plating efficiency of cells exposed to 0 μM TPZ for each oxygen concentration. Error bars represent the standard error of the mean. E: Cell density alters sensitivity to TPZ. HIFwt and HIFko MEFs were grown at varying cell densities in glass dishes and exposed to 2% O2 in the presence of 10 μM TPZ for 24 h. After the exposure, survival was determined as described in […].
Cell lines and cell culture. Primary human fibroblasts have been described previously (Denko et al., 2003; Kim et al., 1997) and RKO human colon carcinoma cells were obtained from the American Type Culture Collection (ATCC, Manassas, Va.). RCC4, RCC4/VHL, and RCC4/Y98H human renal cell carcinoma cell lines have also been described previously (Chan et al., 2005). Wildtype and HIF-1α knockout mouse embryo fibroblasts (MEFs) were a gift from Dr. R Johnson (University of California, San Diego). All cells were grown in vitro as monolayers in Dulbeco's Modified Eagle's Media (DMEM) supplemented with 10% fetal bovine serum (FBS). For treatment with moderate hypoxia, cell culture dishes were placed into an Invivo2 humidified hypoxia workstation (Ruskinn Technologies, Bridgend, UK) at the indicated oxygen concentrations. Severe hypoxia was generated in an anaerobic workstation with a palladium catalyst (Sheldon Co., Cornelius, Oreg.). Tirapazamine toxicity was measured in cells plated overnight at the indicated density in glass dishes. The next day, fresh media was added containing the indicated concentration of TPZ, and the cells placed in the indicated oxygen environment. 24 hours later, the cells were trypsinized, counted, and plated for colony formation in normoxia.
Because HIF-1 can help cells adapt to hypoxia and maintain some intracellular oxygen level, it may also protect tumor cells from killing by the hypoxic cytotoxin tirapazamine (TPZ). TPZ toxicity is very oxygen dependent, especially at oxygen levels between 1-4% (Koch, 1993). We therefore tested the relative sensitivity of the HIFwt and HIFko cells to TPZ killing in high density cultures (FIG. 6d). We exposed the cells to the indicated concentrations of drug and oxygen concentrations overnight. The cells were then harvested and replated to determine reproductive viability by colony formation. […] The lower oxygen level is significant enough to dramatically sensitize these cells to killing by TPZ.

[2] = system: RKO and RKOShHIF1α 5×HRE-luciferase reporter tumors; test: Bioluminescent imaging of HRE-luciferase reporter tumors in vivo; set-up: species or system mouse; settings: twelve hours after single dose 60 mg/kg tirapazamine ip
Method: FIG. 8. Increasing oxygen consumption by inhibition of PDK activity increases tumor hypoxia. (a) Luciferase activity of wildtype and HIF1α knockdown RKO cells stably transfected with a HIF1 responsive luciferase reporter gene. Cells were exposed to 0.5% O2 for 24 hours in triplicate. Luminescence is normalized to normoxic HIF wildtype cells. (b) Luciferase activity of wildtype RKO HIF1 reporter cells exposed to 0.5% O2 for 24 hours in the presence of increasing concentrations of echinomycin. Data are normalized to the increase in signal observed in the absence of drug. (c) Bioluminescent imaging in vivo. Images show a representative animal bearing an RKO reporter tumor on the left flank and an RKOShHIF1α reporter tumor on the right flank as a function of time after ip injection of 50 mg/kg DCA. […] (d) Quantification of in vivo bioluminescence. […] The data represent the mean of three independent experiments, each comprising 5 RKO and 5 RKOShHIF1α reporter tumors.
FIG. 14. Luciferase activity of hypoxia reporter tumors in response to tirapazamine. Mice bearing 500 mm^3 RKO HRE-luciferase tumors were imaged using an IVIS100 bioluminescent imaging system, and the signal from each tumor was quantified. […]
Bioluminescent imaging. […] After 10 min, bioluminescence was measured in a Xenogen IVIS100 imaging system (Xenogen). Data was quantified by measuring total photons/s from uniform regions of interest. […]

experimental tumors = settings: literature reference (28); cited from earlier work

Row | Structure (SMILES) | effect on total cellular oxygen consumption ([1]; fibroblast suspensions from normoxic and hypoxic (24 h) cultures, mitochondrial uncoupler) | effect on oxygen consumption in hypoxia treated cells ([1]; hypoxia treated cells) | cell-density effect on TPZ toxicity in HIFko cells (HIFwt and HIFko MEFs; 2% O2, 10 μM TPZ, 24 h, HIFko) | cell-density effect on TPZ toxicity in HIFwt cells (HIFwt and HIFko MEFs; 2% O2, 10 μM TPZ, 24 h, HIFwt, highest density cultures) | effect of increased cell density on TPZ toxicity (HIFwt and HIFko MEFs; 2% O2, 10 μM TPZ, 24 h, varying cell densities) | sensitivity of HIF-null cells to the drug relative to wild type cells (HIFwt and HIFko MEFs; 2% oxygen, high density cultures, overnight) | sensitivity to TPZ killing (colony formation), HIFwt vs HIFko (HIFwt and HIFko MEFs; 21% oxygen, high density cultures, overnight) | sensitivity to TPZ killing (colony formation), HIFwt vs HIFko (HIFwt and HIFko MEFs; anoxic conditions, high density cultures, overnight) | reduction of luciferase signal of HRE-reporter tumors [2] [%] | reduction of the hypoxic fraction of experimental tumors (experimental tumors)
1 | N#CC(C#N)=NNc1cccc(Cl)c1 [CCCP, carbonyl cyanide 3-chloro phenylhydrazone] | stimulated | increase oxygen consumption |  |  |  |  |  |  |  | 
2 | Nc1n[n+]([O-])c2ccccc2[n+]1[O-] [tirapazamine] |  |  | much more pronounced | some increased toxicity | increased TPZ toxicity | significantly greater sensitivity | equally resistant | equally sensitive | 90 | greater than 10 fold
